{"source": "patent US3944498A", "about": "“Germicidal detergent containing a thienyliodonium salt” (The Dow Chemical Company, priority 1973, dated 1976)", "key": {"[1]": {"assay": "Oral median lethal dose in Swiss mice (Cox strain)", "assay_type": "in vivo", "conditions": "mouse, in vivo, po; for LD50 at 168 h: 7 days; for LD50 at 336 h: 14 days", "experimental": "(§1) Five groups of mice, each consisting of 15 males and 15 females, were given ClPhThICl in an aqueous 0.5 percent METHOCEL hydroxypropyl methylcellulose (4000 cps.) suspension at a concentration of 300 mg/ml. The compound was administered as a single oral dose at 0.2 logarithmic dose intervals (708, 1120, 1780, 2820, 4450 mg/kg) and the following mortality experience was noted:\n(§2) The percent of total mortalities occurring was 16.0, 66.6, 81.5, and 91.3 at 6, 24, 48 and 72 hours post-treatment, respectively. The last death occurred in a female (1120 mg/kg group) on day 14 of the study."}, "Swiss mice (Cox strain)": {"test_system": "Swiss mice (Cox strain)", "assay": "Oral median lethal dose in Swiss mice (Cox strain)", "assay_type": "in vivo", "experimental": "as §1, §2"}, "[2]": {"conditions": "male mice, 95% confidence limits 1353-2288 mg/kg"}}, "data": [{"molecule": "Clc1ccc([I+]c2cccs2)cc1.[Cl-]", "note": "[4-Chlorophenyl-2-thienyliodonium chloride]", "values": [{"measurement": "LD50 at 24 h", "setting": "[1]; female mice, 95% confidence limits 2300-3591 mg/kg", "result": 2700, "unit": "mg/kg"}, {"measurement": "LD50 at 24 h", "setting": "[1]; male mice, 95% confidence limits 1916-2760 mg/kg", "result": 2300, "unit": "mg/kg"}, {"measurement": "LD50 at 168 h", "setting": "[1]; female mice, 95% confidence limits 1172-2455 mg/kg", "result": 1700, "unit": "mg/kg"}, {"measurement": "LD50 at 168 h", "setting": "[1]; [2]", "result": 1760, "unit": "mg/kg"}, {"measurement": "LD50 at 336 h", "setting": "[1]; female mice, 95% confidence limits 1264-1975 mg/kg", "result": 1580, "unit": "mg/kg"}, {"measurement": "LD50 at 336 h", "setting": "[1]; [2]", "result": 1760, "unit": "mg/kg"}, {"measurement": "No. Dead", "setting": "Swiss mice (Cox strain); 708 mg/kg oral, 7 Days, females", "result": "1/15"}, {"measurement": "No. Dead", "setting": "Swiss mice (Cox strain); 708 mg/kg oral, 7 Days, males", "result": "0/15"}, {"measurement": "No. Dead", "setting": "Swiss mice (Cox strain); 708 mg/kg oral, 14 Days, females", "result": "2/15"}, {"measurement": "No. Dead", "setting": "Swiss mice (Cox strain); 708 mg/kg oral, 14 Days, males", "result": "1/15"}, {"measurement": "No. Dead", "setting": "Swiss mice (Cox strain); 708 mg/kg oral, 24 Hours, females", "result": "0/15"}, {"measurement": "No. Dead", "setting": "Swiss mice (Cox strain); 708 mg/kg oral, 24 Hours, males", "result": "0/15"}, {"measurement": "No. Dead", "setting": "Swiss mice (Cox strain); 1120 mg/kg oral, 7 Days, females", "result": "1/15"}, {"measurement": "No. Dead", "setting": "Swiss mice (Cox strain); 1120 mg/kg oral, 7 Days, males", "result": "1/15"}, {"measurement": "No. Dead", "setting": "Swiss mice (Cox strain); 1120 mg/kg oral, 14 Days, females", "result": "2/15"}, {"measurement": "No. Dead", "setting": "Swiss mice (Cox strain); 1120 mg/kg oral, 14 Days, males", "result": "1/15"}, {"measurement": "No. Dead", "setting": "Swiss mice (Cox strain); 1120 mg/kg oral, 24 Hours, females", "result": "0/15"}, {"measurement": "No. Dead", "setting": "Swiss mice (Cox strain); 1120 mg/kg oral, 24 Hours, males", "result": "0/15"}, {"measurement": "No. Dead", "setting": "Swiss mice (Cox strain); 1780 mg/kg oral, 7 Days, females", "result": "8/15"}, {"measurement": "No. Dead", "setting": "Swiss mice (Cox strain); 1780 mg/kg oral, 7 Days, males", "result": "8/15"}, {"measurement": "No. Dead", "setting": "Swiss mice (Cox strain); 1780 mg/kg oral, 14 Days, females", "result": "8/15"}, {"measurement": "No. Dead", "setting": "Swiss mice (Cox strain); 1780 mg/kg oral, 14 Days, males", "result": "9/15"}, {"measurement": "No. Dead", "setting": "Swiss mice (Cox strain); 1780 mg/kg oral, 24 Hours, females", "result": "4/15"}, {"measurement": "No. Dead", "setting": "Swiss mice (Cox strain); 1780 mg/kg oral, 24 Hours, males", "result": "3/15"}, {"measurement": "No. Dead", "setting": "Swiss mice (Cox strain); 2820 mg/kg oral, 7 Days, females", "result": "14/15"}, {"measurement": "No. Dead", "setting": "Swiss mice (Cox strain); 2820 mg/kg oral, 7 Days, males", "result": "14/15"}, {"measurement": "No. Dead", "setting": "Swiss mice (Cox strain); 2820 mg/kg oral, 14 Days, females", "result": "14/15"}, {"measurement": "No. Dead", "setting": "Swiss mice (Cox strain); 2820 mg/kg oral, 14 Days, males", "result": "14/15"}, {"measurement": "No. Dead", "setting": "Swiss mice (Cox strain); 2820 mg/kg oral, 24 Hours, females", "result": "8/15"}, {"measurement": "No. Dead", "setting": "Swiss mice (Cox strain); 2820 mg/kg oral, 24 Hours, males", "result": "11/15"}, {"measurement": "No. Dead", "setting": "Swiss mice (Cox strain); 4450 mg/kg oral, 7 Days, females", "result": "15/15"}, {"measurement": "No. Dead", "setting": "Swiss mice (Cox strain); 4450 mg/kg oral, 7 Days, males", "result": "15/15"}, {"measurement": "No. Dead", "setting": "Swiss mice (Cox strain); 4450 mg/kg oral, 14 Days, females", "result": "15/15"}, {"measurement": "No. Dead", "setting": "Swiss mice (Cox strain); 4450 mg/kg oral, 14 Days, males", "result": "15/15"}, {"measurement": "No. Dead", "setting": "Swiss mice (Cox strain); 4450 mg/kg oral, 24 Hours, females", "result": "13/15"}, {"measurement": "No. Dead", "setting": "Swiss mice (Cox strain); 4450 mg/kg oral, 24 Hours, males", "result": "15/15"}, {"measurement": "percent of total mortalities occurring", "setting": "Swiss mice (Cox strain); 6 hours post-treatment", "result": 16.0, "unit": "%"}, {"measurement": "percent of total mortalities occurring", "setting": "Swiss mice (Cox strain); 24 hours post-treatment", "result": 66.6, "unit": "%"}, {"measurement": "percent of total mortalities occurring", "setting": "Swiss mice (Cox strain); 48 hours post-treatment", "result": 81.5, "unit": "%"}, {"measurement": "percent of total mortalities occurring", "setting": "Swiss mice (Cox strain); 72 hours post-treatment", "result": 91.3, "unit": "%"}, {"measurement": "time of last death", "setting": "Swiss mice (Cox strain); female, 1120 mg/kg group", "result": 14, "unit": "days"}]}]}
